Assay results reported in article PMC8297771 (PLoS Pathogens, 2021).

Assays:
[1] = Safety pharmacology: effects on the respiratory system in rats; type: in vivo; details: single oral 100, 300 and 600 mg/kg
Method: Effects on the Respiratory System in Rats (Study no. YL18404). Four groups of eight male rats were given a single oral administration of STP0404 at doses of 100, 300 and 600 mg/kg. STP0404 was administered as a suspension in 0.5% MC in a volume of 10 mL/kg. […] Measurements were conducted at pre-dosing and 0.5, 1, 3, 6 12 and 24 hrs post-dosing, and respiratory rate, tidal volume and minute volume were investigated (INA Research, Japan). Effects on the Central Nervous System in Rats (Study no. YL18405). Four groups of six male rats were given a single oral administration of STP0404 at doses of 0 (vehicle), 100, 300 and 600 mg/kg. The test article was administered as a suspension in 0.5% MC in a volume of 10 mL/kg. […] Blinded observations were conducted pre-dosing and 0.5, 1, 3, 6, 12 and 24 hrs post-dosing on rats body temperature, pupil size, landing foot-splay and grip strength in functional observational battery. Effects on the Cardiovascular System in Dogs (Study no. YL18406). STP0404 at dose levels of 30, 60 and 90 mg/kg were administered orally (by capsules) to four male Beagle dogs in a design with 7-day intervals between doses. Heart rate, blood pressure (systolic, diastolic and mean) and electrocardiographic (ECG) parameters (PR, QT and QTc intervals and QRS duration) were evaluated at pre-dosing and 0.5, 1, 2, 4, 8 and 24 hrs post-dosing. […]

human PBMCs = assay: Tissue culture cytotoxicity measurement in human PBMCs; type: cell-based
From the text: Multiple chemical scaffolds such as quinoline (BI224436, Fig 1A), benzothiazole (GS-9822, Fig 1B) and pyridine (KF116, Fig 1C) were previously explored for the discovery of ALLINIs. Here, we employed the pyrrolopyridine-based scaffold to synthesize an ALLINI candidate compound, STP0404 (Fig 1D). STP0404 harbors the tert-butoxy moiety that is common to other ALLINIs (Fig 1). First, we measured its in vitro anti-HIV-1 efficacy and cytotoxicity using various HIV-1 strains in multiple cell types, with cytotoxicity initially tested up to 10 μM (Table 1). […] The calculated in vitro minimum therapeutic index (TI) of STP0404 under these conditions was accordingly >25,000. For comparison, we employed two FDA-approved HIV-1 inhibitors, AZT (RT inhibitor) and Raltegravir (Ral, INSTI), alongside 5 different Ral-resistant clinical isolates (Table 1).

[2] = system: HIV-GFP in LEDGF/p75 knockout Jurkat cell lines (1-F10 and 2-C10); assay: HIV-1 inhibition in infecting LEDGF/p75 knockout cells; type: cell-based; details: 60 nM
Method: To test for STP0404’s inhibitory effects during the late stage of HIV-1 life cycle such as the maturation step, we employed the “producing cells” setup. In T75 tissue culture flasks, 293T cells were pre-treated with and without STP0404 (0 and 60 nM) for 2 hrs prior to transfection with pD3-HIV (13 μg) and pVSV-g (6 μg), using 0.3 mg/ml polyethylenimine. After 24 hrs incubation at 37°C, the supernatant was removed and replaced with fresh media with and without STP0404 (0 and 60 nM). 48 hrs later, D3-HIV vector from each treatment group was concentrated from the collected supernatant via ultracentrifugation (22,000 rpm for 2 hrs). Following p24 quantification, using 96-well plates, similar amount of respective D3-HIV vector was used to transduce Jurkat cells in triplicates for 48 hrs. The cells were harvested and fixed with 3.7% formaldehyde before being analyzed for GFP expression using FACS (Miltenyi Biotec, VYB). Separately, the “infecting cells” setup was used to investigate the inhibitory effects of STP0404 against the early stages of HIV-1 life cycle such as the integration and transcription steps. […] All data were analyzed using GraphPad Prism (Version 9). Unpaired t tests were performed to determine the significance of the readings in respective experimental set up relative to the untreated controls. […]

[3] = In vivo pharmacokinetics in beagle dogs; details: male, plasma, Dog
Method: (§1) Study design: […]). Group 1 was dosed with STP0404 at 1 mg/kg by single intravenous administration. Groups 2 to 4 were dosed with STP0404 at 20, 40 and 80 mg/kg, respectively, by single oral administration. The vehicle used for IV study was DMSO: PEG400: […] Blood samples were collected at 0.0833, 0.25, 0.5, 1, 2, 4, 8, 12 (only for PO groups) and 24 hrs post-dose for Groups 1 to 4. STP0404 concentrations in plasma samples were determined by LC-MS/MS. Preclinical Dog pharmacokinetics study (Study no. 400751-2015020201-DPK): A total of 6 male Beagle dogs were divided into two groups (3 animals/group). Following single STP0404 2 mg/kg oral and intravenous administration to Beagle Dogs, STP0404 concentration was determined in plasma, and pharmacokinetic parameters were calculated. […] The concentrations of STP0404 in plasma were determined by using a LC/MS/MS method.

[4] = In vivo pharmacokinetics, summary over rats and dogs; set-up: species or system SD rats and beagle dogs; details: Sprague-Dawley (rat), beagle (dog), plasma, range over rats and dogs
Method: as §1

full-length IN = target: T1, full-length IN (Human immunodeficiency virus type 1 group M subtype B, UniProt P12497); assay: HTRF-based IN multimerization assay; type: biochemical, HIV-1
T1 construct: between two full-length IN protein populations differentially labeled
Method: To test the ability of STP0404 to induce higher-order multimerization of IN we employed homogeneous time-resolved fluorescence (HTRF)-based assay. Briefly, His-tagged and FLAG-tagged INs (each at 10 nM final concentration) were mixed in buffer containing 25 mM Tris, pH 7.4, 150 mM NaCl, 2 mM MgCl2, 0.1% Nonidet P-40 and 1 mg/ml BSA. This mixture was incubated with various concentrations of the test compounds for 3 hrs at room temperature. The detection is based on anti-His6-XL665 and anti-FLAG-EuCryptate antibodies (Cisbio, Inc., Bedford, MA) which were added to the reaction and incubated at room temperature for 3 hrs. The HTRF signal was recorded by PerkinElmer EnSpire multimode plate reader and OriginLab software was used to calculate the EC50 values.

## Cc1nc2c(c(C)c(C)n2Cc2cnn(C)c2)c(-c2ccc(Cl)cc2)c1[C@H](OC(C)(C)C)C(=O)O [STP0404]
[1]
  safety pharmacology concerns, respiratory system: did not induce any safety pharmacology concerns
Human PBMCs; human
  TC50: >10,000 nM
Human PBMCs; human PBMCs, NL4-3, tested up to 10 μM
  TC50: >10,000 nM
Human PBMCs; human PBMCs, no observable cytotoxicity at 10 μM
  TC50: > 10 µM
[2]
  infection of LEDGF/p75 knockout Jurkat T cells: failed to significantly inhibit infection
[3]; iv, 2 mg/kg (i.v)
  AUC: 9.26 µM·h
  half-life: 6.11 h
[3]; po, 2 mg/kg (p.o)
  AUC: 4.68 µM·h
  Cmax: 3.98 µM
  half-life: 6.9 h
[3]; po, 2 mg/kg (p.o), read-out: Ft (oral bioavailability)
  bioavailability: 50.6%
[4]; intravenous, oral, read-out: half-life (T1/2)
  half-life: 3 to 7 h
[4]; po, read-out: oral bioavailability (Ft)
  bioavailability: 50 to 93%
full-length IN
  EC50: 147 ± 20 nM
